According to US20170273922A1, “UREA AND BIS-UREA BASED COMPOUNDS AND ANALOGUES THEREOF USEFUL IN THE TREATMENT OF ANDROGEN RECEPTOR MEDIATED DISEASES OR DISORDERS” (THE ROYAL INSTITUTION FOR THE ADVACEMENT OF LEARNING/MCGILL …, priority 2014, published 2017):
“Also recorded” adds a separate entry of the source.

How the values were obtained:
[1] = test system: 22Rv1 cells; experiment: MTT assay (cytotoxicity), 22Rv1 cells; type: cell-based; conditions: 22Rv1 cells, 72 h, Table 4.2
In short: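 Cells grown in RPMI 1640 with 10% FBS were seeded at 6-7×10^3 cells/well and left overnight. They were then exposed to compound or DMSO vehicle for 72 h in fresh medium. Viability was measured by MTT, in triplicate, with each experiment repeated at least twice.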

[2] = target: T1, IRF3DBD-AR(1-547) (Homo sapiens, UniProt P10275); experiment: IRF3DBD-AR(1-547) ISRE-luc reporter assay; type: cell-based; conditions: 24 h; for inhibition of IRF3DBD-AR(1-547)-mediated ISRE-luc activation: HEK293 cells; for inhibition of IRF3-AR(1-547)-dependent ISRE-luc reporter activity: PC3 cells
T1 construct: IRF3-AR(1-547) is the fusion of IRF3 DBD with the AR NTD (1-547); expressed in transfected cells
T1 sequence (P10275 1-547): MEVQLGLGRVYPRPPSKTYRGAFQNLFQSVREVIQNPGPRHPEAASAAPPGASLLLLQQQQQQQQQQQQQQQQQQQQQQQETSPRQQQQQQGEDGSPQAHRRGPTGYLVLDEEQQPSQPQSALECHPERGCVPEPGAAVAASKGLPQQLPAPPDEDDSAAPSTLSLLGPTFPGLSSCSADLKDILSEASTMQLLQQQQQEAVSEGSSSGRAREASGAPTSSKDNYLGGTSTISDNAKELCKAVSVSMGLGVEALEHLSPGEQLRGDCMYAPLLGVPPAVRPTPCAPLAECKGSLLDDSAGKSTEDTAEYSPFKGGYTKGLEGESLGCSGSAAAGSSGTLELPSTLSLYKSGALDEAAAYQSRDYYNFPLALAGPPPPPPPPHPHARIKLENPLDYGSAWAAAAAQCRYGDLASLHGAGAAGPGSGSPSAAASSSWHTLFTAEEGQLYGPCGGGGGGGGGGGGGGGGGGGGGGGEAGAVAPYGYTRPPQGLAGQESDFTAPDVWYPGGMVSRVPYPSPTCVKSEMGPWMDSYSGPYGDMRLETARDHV

[3] = target: T2, T877A mutant of full-length AR (Homo sapiens, UniProt P10275, T878A); experiment: AR T877A mutant PSA-luc reporter assay in PC3 cells; type: cell-based; conditions: 24 h; for inhibition of DHT-induced transactivation of T877A mutant AR (PSA-luc): 10 nM DHT; for agonism of AR T877A mutant (PSA-luc): absence of DHT
T2 sequence (P10275 1-920 T878A): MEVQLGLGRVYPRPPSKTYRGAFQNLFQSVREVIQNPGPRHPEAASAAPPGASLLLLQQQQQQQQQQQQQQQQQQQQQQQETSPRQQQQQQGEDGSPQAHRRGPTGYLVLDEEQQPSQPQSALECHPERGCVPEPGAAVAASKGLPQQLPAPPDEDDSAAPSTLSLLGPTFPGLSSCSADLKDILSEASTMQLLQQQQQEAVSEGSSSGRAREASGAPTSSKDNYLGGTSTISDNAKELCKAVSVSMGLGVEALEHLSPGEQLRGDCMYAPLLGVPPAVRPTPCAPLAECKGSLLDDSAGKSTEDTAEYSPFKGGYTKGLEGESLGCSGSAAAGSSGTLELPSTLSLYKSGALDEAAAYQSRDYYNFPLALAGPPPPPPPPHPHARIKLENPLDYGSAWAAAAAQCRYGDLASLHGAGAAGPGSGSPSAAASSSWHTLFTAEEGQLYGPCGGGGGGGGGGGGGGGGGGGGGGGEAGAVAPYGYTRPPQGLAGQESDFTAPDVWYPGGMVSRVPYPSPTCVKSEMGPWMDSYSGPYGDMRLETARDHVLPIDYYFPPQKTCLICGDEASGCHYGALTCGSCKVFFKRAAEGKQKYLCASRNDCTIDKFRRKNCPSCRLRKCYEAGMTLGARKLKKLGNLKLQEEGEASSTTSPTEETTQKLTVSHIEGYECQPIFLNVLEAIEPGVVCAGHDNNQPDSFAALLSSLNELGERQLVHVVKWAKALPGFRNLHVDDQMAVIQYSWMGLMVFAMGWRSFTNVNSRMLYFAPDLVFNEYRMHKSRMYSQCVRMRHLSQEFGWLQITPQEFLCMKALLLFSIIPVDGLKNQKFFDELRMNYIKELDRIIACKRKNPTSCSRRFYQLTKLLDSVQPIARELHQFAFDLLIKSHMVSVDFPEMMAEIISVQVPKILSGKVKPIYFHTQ
Excerpt: ENZ, enzalutamide; Bic, bicalutamide; OHF, hydroxyflutamide.

[4] = test system: endogenous AR-Vs in 22Rv1 cells; experiment: PSA-luc reporter assay in androgen-starved 22Rv1 cells (endogenous LBD-truncated AR variants); conditions: androgen-starved 3 days, 24 h exposure
Procedure: NT, LNCaP cells were transiently transfected with pIRES vector, PSA-luc and pRL-TK. […] Cells were then transiently transfected with PSA-Luc and pRL-TK and exposed to DMSO or compounds for 24 h, in triplicate. NT, not transfected with PSA-luc.
The ARs were probed by N-terminal directed AR antibody (N20, Santa Cruz); B) The 22Rv1 cells were androgen-starved (in phenol red-free medium+10% CS-FBS) for 3 days to ensure the full-length AR expressed in 22Rv1 are not activated. The 22Rv1 cells were subsequently co-transfected with PSA-luc and pRL-TK plasmids. […] Cells in phenol red-free medium+10% CS-FBS were exposed to DMSO or compounds for 24 h and harvested for Western blot analysis.
The cells were androgen-starved for 3 days and transfected with PSA-Luc and pRL-TK plasmids. NT, cells were transfected with empty vector. Cells were exposed to vehicle control or compounds for 24 h.

[5] = target: T3, Progesterone receptor (PR) (Homo sapiens, UniProt P06401); experiment: PR MMTV-luc reporter assay in PC3 cells; type: cell-based; set-up: interference with transcriptional activity of PR: dose or concentration left out as unconfirmed; conditions: for effect on PR transcriptional activation (MMTV-luc): 10 nM R5020, PC3 cells, 24 h
T3 construct: expressed in transfected cells; host or cells: PC3
T3 sequence (P06401 1-933): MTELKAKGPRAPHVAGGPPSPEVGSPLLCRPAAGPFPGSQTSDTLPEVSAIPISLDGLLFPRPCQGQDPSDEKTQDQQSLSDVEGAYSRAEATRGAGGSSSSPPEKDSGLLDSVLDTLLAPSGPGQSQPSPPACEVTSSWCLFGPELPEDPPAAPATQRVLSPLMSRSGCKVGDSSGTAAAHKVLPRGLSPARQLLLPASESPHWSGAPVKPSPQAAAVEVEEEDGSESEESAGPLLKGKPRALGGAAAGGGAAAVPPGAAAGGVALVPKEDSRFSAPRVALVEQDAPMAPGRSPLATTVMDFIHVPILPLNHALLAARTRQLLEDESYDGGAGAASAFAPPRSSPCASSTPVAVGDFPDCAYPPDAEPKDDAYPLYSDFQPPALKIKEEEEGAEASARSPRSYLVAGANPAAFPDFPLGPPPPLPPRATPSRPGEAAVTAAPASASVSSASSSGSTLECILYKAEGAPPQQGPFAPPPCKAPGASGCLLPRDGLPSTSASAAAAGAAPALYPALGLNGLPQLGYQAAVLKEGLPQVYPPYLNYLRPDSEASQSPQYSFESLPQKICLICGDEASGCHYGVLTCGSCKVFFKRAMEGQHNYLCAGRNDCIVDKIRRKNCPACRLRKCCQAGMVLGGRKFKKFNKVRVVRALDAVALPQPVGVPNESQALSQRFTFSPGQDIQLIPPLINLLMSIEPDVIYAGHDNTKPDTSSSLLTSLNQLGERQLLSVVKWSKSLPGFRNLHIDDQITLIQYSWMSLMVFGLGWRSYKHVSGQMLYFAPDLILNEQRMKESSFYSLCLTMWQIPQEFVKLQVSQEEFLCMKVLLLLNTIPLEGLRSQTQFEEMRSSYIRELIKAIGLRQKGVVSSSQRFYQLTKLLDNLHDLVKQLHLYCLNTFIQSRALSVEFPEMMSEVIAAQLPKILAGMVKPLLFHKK

SMILES	inhibition of IRF3-AR(1-547)-dependent ISRE-luc reporter activity [2]	interference with transcriptional activity of PR [5]	IC50 [1] [µM]	inhibition of IRF3DBD-AR(1-547)-mediated ISRE-luc activation [2]	inhibition of DHT-induced transactivation of T877A mutant AR (PSA-luc) [3]	agonism of AR T877A mutant (PSA-luc) [3]	activity against constitutive activation of endogenous AR-Vs in 22Rv1 cells (PSA-luc) [4]	effect on PR transcriptional activation (MMTV-luc) [5]
O=C(Nc1cccc(C(F)(F)F)c1)Nc1ccc([N+](=O)[O-])c(C(F)(F)F)c1 [Compound 442]			1.5	suppressed	dose-dependently suppressed; also recorded: dose-dependently inhibit	non-agonist	significantly suppressed; also recorded: active	
N#Cc1ccc(NC(=O)Nc2cccc(C(F)(F)F)c2)cc1C(F)(F)F [Compound 467]			1.7	suppressed	dose-dependently suppressed; also recorded: dose-dependently inhibit	non-agonist	significantly suppressed; also recorded: active	
N#Cc1ccc(NC(=O)Nc2cccc(C(F)(F)F)c2)cc1Cl [Compound 492]			1.9		dose-dependently suppressed; also recorded: dose-dependently inhibit	non-agonist		

More lines, main results first:

inhibition of IRF3-AR(1-547)-dependent ISRE-luc reporter activity [2]	interference with transcriptional activity of PR [5]	SMILES	IC50 [1] [µM]	inhibition of IRF3DBD-AR(1-547)-mediated ISRE-luc activation [2]	inhibition of DHT-induced transactivation of T877A mutant AR (PSA-luc) [3]	agonism of AR T877A mutant (PSA-luc) [3]	activity against constitutive activation of endogenous AR-Vs in 22Rv1 cells (PSA-luc) [4]	effect on PR transcriptional activation (MMTV-luc) [5]
potently inhibit	do not interfere	O=C(N/C=C/c1cccc(C(F)(F)F)c1)Nc1ccncn1 [Compound 562]		targeting the AR-NTD; also recorded: target the AR-NTD	inhibit		remain active; also recorded: greater inhibitory activity than EPI-001	do not interfere; also recorded: selective towards the AR
	do not interfere	O=C(Nc1ccc(Br)nc1)Nc1cc(C(F)(F)F)cc(C(F)(F)F)c1 [Compound 566]		targeting the AR-NTD; also recorded: target the AR-NTD			active; also recorded: greater inhibitory activity than EPI-001	do not interfere
potently inhibit	do not interfere	O=C(Nc1cccc(C(F)(F)F)c1)Nc1ccc(NC(=O)c2ccccc2F)c(C(F)(F)F)c1 [Compound 746]		targeting the AR-NTD; also recorded: target the AR-NTD	inhibit		remain active; also recorded: greater inhibitory activity than EPI-001	do not interfere; also recorded: selective towards the AR
